Source: ChEMBL document CHEMBL1151185, “Isolation and structure elucidation of a novel antimalarial macrocyclic polylactone, menisporopsin A, from the fungus Menisporopsis theobromae” (J Nat Prod, 2004)
In brackets after ≈: the same amount, converted by molar mass. Activity calls are given as the source filed them. No cut-off for these calls is given here.

Tests used:
Plasmodium falciparum [1] = experiment: Antimalarial activity against multidrug-resistant Plasmodium falciparum K1 at 20 ug/mL as reduced [3H]hypoxanthine uptake; type: functional, organism-based
BC1 = experiment: Cytotoxicity against human BC1 cells at 20 ug/mL by colorimetric method; type: functional, cell-based
Candida albicans = experiment: Antimicrobial activity against Candida albicans at 20ug/mL; type: functional, organism-based
[2] = test system: Mycobacterium tuberculosis; experiment: Antimycobacterial activity against Mycobacterium tuberculosis H37Ra by microplate alamar blue assay; type: functional
KB = experiment: Cytotoxicity against human KB cells by colorimetric method; type: functional, cell-based
[3] = Cytotoxicity against human BC1 cells by colorimetric method; type: functional, cell-based
Plasmodium falciparum [4] = experiment: Antimalarial activity against multidrug-resistant Plasmodium falciparum K1 by [3H]hypoxanthine uptake; type: functional, organism-based

Structure (SMILES) | Activity (Plasmodium falciparum [1]) | Activity (BC1) | Activity (Candida albicans) | MIC [2] [µg/mL] | IC50 (KB) [µg/mL] | IC50 [3] [µg/mL] | IC50 (Plasmodium falciparum [4]) [µg/mL]
COc1cc2c(c(OC)c1)C(=O)O[C@H](C)CC(=O)O[C@H](C)Cc1cc(OC)cc(OC)c1C(=O)O[C@H](C)CC(=O)O[C@H](C)Cc1cc(OC)cc(OC)c1C(=O)O[C@H](C)C[C@@H](O)C2 | inactive | inactive | inactive | – | – | – | –
C[C@@H]1Cc2cc(O)cc(O)c2C(=O)O[C@H](C)CC(=O)O[C@H](C)Cc2cc(O)cc(O)c2C(=O)O[C@H](C)C[C@@H](O)Cc2cc(O)cc(O)c2C(=O)O[C@H](C)CC(=O)O1 [MENISPOROPSIN A] | – | – | inactive | 50 (≈ 62.6 µM) | 6 (≈ 7.51 µM) | 5 (≈ 6.26 µM) | 4 (≈ 5.01 µM)
